Assay results: patent US8217164B2, “Use of a lactose-derived C-glycoside compound as an agent for activating and regulating cutaneous immunity” (L'Oreal, priority 2006, dated 2012)

Test system: human peripheral blood cells (lymphocyte proliferation)
Test: Immunostimulant activity: lymphocyte proliferation by BrdU labelling
Type: cell-based
Conditions: 10 to 0.05 mM, 3 days of culture
Procedure: The immunostimulant activity is tested in the following way: human peripheral blood cells are cultured in the presence of an RPMI-type culture medium supplemented with L-glutamine (2 mM), penicillin/streptomycin (50 μg/50 IU/ml) and foetal calf serum (10%). The C-glycoside derivatives are added at various concentrations (10 to 0.05 mM), as is phytohaemagglutinin (PHA at 5*G/ml), a positive control for lymphocyte proliferation.

CC(=O)C[C@@H]1O[C@H](CO)[C@@H](OC2O[C@H](CO)[C@H](O)[C@H](O)[C@H]2O)[C@H](O)[C@H]1O (stereo partly shown) [Compound 2]
human lymphocyte proliferation (immunostimulant activity): tendency to stimulate human lymphocyte proliferation at all the concentrations tested
